The values that follow come from ChEMBL document CHEMBL1275542, “Characterization of TolC efflux pump proteins from Pasteurella multocida” (2008).

What is called MIC is the lowest concentration that inhibits growth of the organism.

In brackets after ≈: the same amount, converted by molar mass.

Format in all cases: functional
The test system of experiment [1] is Pasteurella multocida. In words: Antibacterial activity against Pasteurella multocida pm1980 after 24 hrs by broth dilution method. (Broth dilution looks for growth in wells or tubes with falling amounts of substance.)
The test system of experiment [2] is Pasteurella multocida. In words: Antibacterial activity against TolC deficient Pasteurella multocida pm1980 after 24 hrs by broth dilution method.
Experiment [3] concerns Pasteurella multocida. In words: Ratio of MIC for Pasteurella multocida AL435 to MIC for TolC deficient Pasteurella multocida pm1980.
Experiment [4] relates to Pasteurella multocida. Description: Antibacterial activity against TolC deficient Pasteurella multocida pm0527 after 24 hrs by broth dilution method.
Experiment [5] relates to Pasteurella multocida. Description: Antibacterial activity against Pasteurella multocida pm0527 after 24 hrs by broth dilution method.
The test system of experiment [6] is Pasteurella multocida. Description: Antibacterial activity against Pasteurella multocida AL435 after 24 hrs by broth dilution method.
Experiment [7] concerns Pasteurella multocida. Description: Ratio of MIC for Pasteurella multocida AL435 to MIC for TolC deficient Pasteurella multocida pm0527.

For the molecule `CC[C@H]1OC(=O)[C@H](C)[C@@H](O[C@H]2C[C@@](C)(OC)[C@@H](O)[C@H](C)O2)[C@H](C)[C@@H](O[C@@H]2O[C@H](C)C[C@H](N(C)C)[C@H]2O)[C@](C)(O)C[C@@H](C)C(=O)[C@H](C)[C@@H](O)[C@]1(C)O` [ERYTHROMYCIN], the MIC amounted to 1.88 µg/mL (≈ 2.56 µM) in experiment [1] (pm1980, 24 h); 1.88 µg/mL (≈ 2.56 µM) in experiment [2] (pm1980, 24 h); 0.47 µg/mL (≈ 0.64 µM) in experiment [4] (pm0527, 24 h); 1.88 µg/mL (≈ 2.56 µM) in experiment [5] (pm0527, 24 h); 3.8 µg/mL (≈ 5.18 µM) in experiment [6] (AL435, 24 h). In addition, the Ratio in experiment [3] worked out at 2; in experiment [7] it was 8.
For the molecule `CC[n+]1c(-c2ccccc2)c2cc(N)ccc2c2ccc(N)cc21.[Br-]` [HOMIDIUM BROMIDE], the minimum inhibitory concentration (MIC) worked out at 10 µg/mL in experiment [1] (pm1980, 24 h); 10 µg/mL in experiment [2] (pm1980, 24 h); 5 µg/mL in experiment [4] (pm0527, 24 h); 10 µg/mL in experiment [5] (pm0527, 24 h); 20 µg/mL in experiment [6] (AL435, 24 h). Besides, the Ratio in experiment [3] is recorded as 2; in experiment [7], 4.
For the molecule `CN(C)c1ccc2cc3ccc(N(C)C)cc3nc2c1` [ACRIDINE ORANGE], the MIC is 30 µg/mL (≈ 113 µM) in experiment [1] (pm1980, 24 h); 30 µg/mL (≈ 113 µM) in experiment [2] (pm1980, 24 h); 0.234 µg/mL (≈ 0.882 µM) in experiment [4] (pm0527, 24 h); 15 µg/mL (≈ 56.5 µM) in experiment [5] (pm0527, 24 h); 30 µg/mL (≈ 113 µM) in experiment [6] (AL435, 24 h). The Ratio in experiment [3] was 1; in experiment [7] it was 128.
As for `COc1cc(Cc2cnc(N)nc2N)cc(OC)c1OC` [TRIMETHOPRIM], the MIC worked out at 1 µg/mL (≈ 3.44 µM) in experiment [1] (pm1980, 24 h); 2 µg/mL (≈ 6.89 µM) in experiment [2] (pm1980, 24 h); 0.25 µg/mL (≈ 0.861 µM) in experiment [4] (pm0527, 24 h); 0.5 µg/mL (≈ 1.72 µM) in experiment [5] (pm0527, 24 h); 8 µg/mL (≈ 27.6 µM) in experiment [6] (AL435, 24 h). Besides, the Ratio was 4 in experiment [3] and 32 in experiment [7].
Take `O=P1(N(CCCl)CCCl)NCCCO1` (configuration not stated) [CYCLOPHOSPHAMIDE ANHYDROUS]: the MIC in experiment [1] (pm1980, 24 h) is 2000 µg/mL (≈ 7660 µM); in experiment [2] (pm1980, 24 h), 2000 µg/mL (≈ 7660 µM); in experiment [4] (pm0527, 24 h) it was 4000 µg/mL (≈ 15300 µM); in experiment [5] (pm0527, 24 h), 2000 µg/mL (≈ 7660 µM); in experiment [6] (AL435, 24 h) it was 4000 µg/mL (≈ 15300 µM). The Ratio in experiment [3] is listed as 2; in experiment [7], 1.
With POLYMYXIN B, the MIC was determined as 6.25 µg/mL in experiment [1]; 12.5 µg/mL in experiment [2]; 3.12 µg/mL in experiment [4]; 6.25 µg/mL in experiment [5]; 12.5 µg/mL in experiment [6]. Besides, the Ratio in experiment [3] was determined as 1; in experiment [7], 4.
In the case of `CCC[C@@H]1C[C@@H](C(=O)N[C@@H]([C@H]2O[C@H](SC)[C@H](O)[C@@H](O)[C@H]2O)[C@@H](C)O)N(C)C1` [LINCOMYCIN], the MIC in experiment [1] (pm1980, 24 h) came out at 50 µg/mL (≈ 123 µM); in experiment [2] (pm1980, 24 h), 100 µg/mL (≈ 246 µM); in experiment [4] (pm0527, 24 h), 25 µg/mL (≈ 61.5 µM); in experiment [5] (pm0527, 24 h), 25 µg/mL (≈ 61.5 µM); in experiment [6] (AL435, 24 h), 100 µg/mL (≈ 246 µM). In addition, the Ratio in experiment [3] turned out to be 1; in experiment [7], 4.
For the molecule GENTAMICIN, the MIC in experiment [1] came out at 40 µg/mL; in experiment [2] it was 40 µg/mL; in experiment [4], 5 µg/mL; in experiment [5], 20 µg/mL; in experiment [6], 20 µg/mL. The Ratio in experiment [3] is 0.5; in experiment [7] it was 4.
With `CN[C@H](CC(C)C)C(=O)N[C@H]1C(=O)N[C@@H](CC(N)=O)C(=O)N[C@H]2C(=O)N[C@H]3C(=O)N[C@H](C(=O)N[C@H](C(=O)O)c4cc(O)cc(O)c4-c4cc3ccc4O)[C@H](O)c3ccc(c(Cl)c3)Oc3cc2cc(c3O[C@@H]2O[C@H](CO)[C@@H](O)[C@H](O)[C@H]2O[C@H]2C[C@](C)(N)[C@H](O)[C@H](C)O2)Oc2ccc(cc2Cl)[C@H]1O` [VANCOMYCIN], the minimum inhibitory concentration (MIC) came out at 250 µg/mL (≈ 173 µM) in experiment [1] (pm1980, 24 h); 250 µg/mL (≈ 173 µM) in experiment [2] (pm1980, 24 h); 125 µg/mL (≈ 86.3 µM) in experiment [4] (pm0527, 24 h); 250 µg/mL (≈ 173 µM) in experiment [5] (pm0527, 24 h); 1000 µg/mL (≈ 690 µM) in experiment [6] (AL435, 24 h). Besides, the Ratio in experiment [3] is 4; in experiment [7] it was 8.
Take `CN(C)c1ccc(C(=C2C=CC(=[N+](C)C)C=C2)c2ccc(N(C)C)cc2)cc1.[Cl-]` [GENTIAN VIOLET]: the MIC in experiment [1] (pm1980, 24 h) is 12.5 µg/mL; in experiment [2] (pm1980, 24 h) it was 12.5 µg/mL; in experiment [4] (pm0527, 24 h), 3.12 µg/mL; in experiment [5] (pm0527, 24 h) it was 6.25 µg/mL; in experiment [6] (AL435, 24 h), 12.5 µg/mL. For the same molecule, the Ratio is 1 in experiment [3] and 4 in experiment [7].
Turning to `CO[C@@H]1[C@@H](OC(N)=O)[C@@H](O)[C@H](Oc2ccc3c(O)c(NC(=O)c4ccc(O)c(CC=C(C)C)c4)c(=O)oc3c2C)OC1(C)C` [NOVOBIOCIN], the MIC was 40 µg/mL (≈ 65.3 µM) in experiment [1] (pm1980, 24 h); 20 µg/mL (≈ 32.6 µM) in experiment [2] (pm1980, 24 h); 2.5 µg/mL (≈ 4.08 µM) in experiment [4] (pm0527, 24 h); 40 µg/mL (≈ 65.3 µM) in experiment [5] (pm0527, 24 h); 40 µg/mL (≈ 65.3 µM) in experiment [6] (AL435, 24 h). In addition, the Ratio in experiment [3] was 2; in experiment [7], 16.
